The values that follow come from paper PMC11191687.

The data set can be described thus: lactamisation (head-to-tail or side-chain-to-tail) of unprotected peptide acyl azide (from hydrazide, 20 equiv NaNO2, pH 3, -15 C, then NaHCO3 to pH ~7), MeCN cosolvent. Particulars: aq phosphate buffer (6 M GdmCl) diluted with 2 vol 50% MeCN/water, 2.2 mM, 2 steps.

Take `C=CC[C@@H]1NC(=O)[C@H](CC(C)C)NC(=O)[C@H](CC(C)C)N(C)C(=O)[C@H](C)NC(=O)[C@H](Cc2ccc(O)c([N+](=O)[O-])c2)NC(=O)[C@H](CC(C)C)N(C)C(=O)[C@H](Cc2cn(C)c3ccccc23)NC1=O` [H-Leu-allylGly-Trp(1-Me)-N-Me-Leu-Tyr(3-NO2)-Ala-N-Me-Leu-N3]: the ring closure, conversion by HPLC (from C=CC[C@H](NC(=O)[C@@H](N)CC(C)C)C(=O)N[C@@H](Cc1cn(C)c2ccccc12)C(=O)N(C)[C@@H](CC(C)C)C(=O)N[C@@H](Cc1ccc(O)c([N+](=O)[O-])c1)C(=O)N[C@@H](C)C(=O)N(C)[C@@H](CC(C)C)C(=O)N=[N+]=[N-], 21-membered ring, 1.35 h) came to 20%.

Consider `CC(C)C[C@H]1C(=O)N[C@@H](C)C(=O)N[C@@H](C)C(=O)N[C@@H](C)C(=O)N(C)[C@@H](CC(C)C)C(=O)N[C@@H](C)C(=O)N[C@@H](C)C(=O)N1C` [H-Ala-N-Me-Leu-Ala-Ala-N-Me-Leu-Ala-Ala-N3], for which the ring closure, conversion by HPLC (from CC(C)C[C@@H](C(=O)N[C@@H](C)C(=O)N[C@@H](C)C(=O)N(C)[C@@H](CC(C)C)C(=O)N[C@@H](C)C(=O)N[C@@H](C)C(=O)N=[N+]=[N-])N(C)C(=O)[C@H](C)N, 21-membered ring, 0.35 h) was 89%.

Consider `CC(C)C[C@@H]1NC(=O)[C@H](CCCN)NC(=O)[C@H](C(C)C)NC(=O)[C@H](Cc2ccc(O)cc2)NC(=O)[C@H](CCC(N)=O)NC(=O)[C@H](CC(N)=O)NC(=O)[C@@H](Cc2ccccc2)NC(=O)[C@H](Cc2ccccc2)NC(=O)[C@@H]2CCCN2C(=O)[C@@H](Cc2ccccc2)NC1=O` [H-D-Phe-Pro-Phe-D-Phe-Asn-Gln-Tyr-Val-Orn-Leu-N3], for which the ring closure, conversion by HPLC (from CC(C)C[C@H](NC(=O)[C@H](CCCN)NC(=O)[C@@H](NC(=O)[C@H](Cc1ccc(O)cc1)NC(=O)[C@H](CCC(N)=O)NC(=O)[C@H](CC(N)=O)NC(=O)[C@@H](Cc1ccccc1)NC(=O)[C@H](Cc1ccccc1)NC(=O)[C@@H]1CCCN1C(=O)[C@H](N)Cc1ccccc1)C(C)C)C(=O)N=[N+]=[N-], 30-membered ring, 0.33 h) was 95%. As to `CCCCC(C)CCC(=O)N[C@@H](CCN)C(=O)N[C@H](C(=O)N[C@@H](CCN)C(=O)N[C@H]1CCNC(=O)[C@H]([C@@H](C)O)NC(=O)[C@H](CCN)NC(=O)[C@H](CCN)NC(=O)[C@H](CC(C)C)NC(=O)[C@@H](CC(C)C)NC(=O)[C@H](CCN)NC1=O)[C@@H](C)O` (stereo partly drawn), the ring closure, conversion by HPLC (from CCCCC(C)CCC(=O)N[C@@H](CCN)C(=O)N[C@H](C(=O)N[C@@H](CCN)C(=O)N[C@@H](CCN)C(=O)N[C@@H](CCN)C(=O)N[C@H](CC(C)C)C(=O)N[C@@H](CC(C)C)C(=O)N[C@@H](CCN)C(=O)N[C@@H](CCN)C(=O)N[C@H](C(=O)N=[N+]=[N-])[C@@H](C)O)[C@@H](C)O, 23-membered ring, 0.017 h) amounted to 56%. In the case of `C=CC[C@@H]1NC(=O)[C@H](CC(C)C)NC(=O)[C@H](CC(C)C)NC(=O)[C@H](C)NC(=O)[C@H](Cc2ccc(O)c([N+](=O)[O-])c2)NC(=O)[C@H](CC(C)C)NC(=O)[C@H](Cc2cn(C(C)(C)C=C)c3ccccc23)NC1=O`, the ring closure, conversion by HPLC (from C=CC[C@H](NC(=O)[C@H](CC(C)C)NC(=O)[C@H](CC(C)C)NC(=O)[C@H](C)NC(=O)[C@H](Cc1ccc(O)c([N+](=O)[O-])c1)NC(=O)[C@H](CC(C)C)NC(=O)[C@@H](N)Cc1cn(C(C)(C)C=C)c2ccccc12)C(=O)N=[N+]=[N-], 21-membered ring) came to 0%. As for `C[C@@H]1NC(=O)CN(C)C(=O)[C@H](C)NC(=O)[C@H](C)NC(=O)CN(C)C(=O)[C@H](C)NC(=O)[C@H](C)NC1=O` [H-Ala-Sar-Ala-Ala-Sar-Ala-Ala-N3], the ring closure, conversion by HPLC (from C[C@H](N)C(=O)N(C)CC(=O)N[C@@H](C)C(=O)N[C@@H](C)C(=O)N(C)CC(=O)N[C@@H](C)C(=O)N[C@@H](C)C(=O)N=[N+]=[N-], 21-membered ring, 0.35 h) came out at 96%.

On to `C[C@@H]1NC(=O)[C@H](C)NC(=O)[C@@H]2CCCN2C(=O)[C@H](C)NC(=O)[C@H](C)NC(=O)[C@@H]2CCCN2C(=O)[C@H](C)NC1=O` [H-Ala-Pro-Ala-Ala-Pro-Ala-Ala-N3], for which, for the setting “from C[C@H](N)C(=O)N1CCC[C@H]1C(=O)N[C@@H](C)C(=O)N[C@@H](C)C(=O)N1CCC[C@H]1C(=O)N[C@@H](C)C(=O)N[C@@H](C)C(=O)N=[N+]=[N-], 21-membered ring, 0.68 h”, the ring closure, conversion by HPLC came out at 80%. For `C=CC[C@@H]1NC(=O)[C@H](CC(C)C)NC(=O)[C@H](CC(C)C)NC(=O)[C@H](C)NC(=O)[C@H](Cc2ccc(O)c([N+](=O)[O-])c2)NC(=O)[C@H](CC(C)C)N(C)C(=O)[C@H](Cc2cn(C(C)(C)C=C)c3ccccc23)NC1=O`, the ring closure, conversion by HPLC (from C=CC[C@H](NC(=O)[C@H](CC(C)C)NC(=O)[C@H](CC(C)C)NC(=O)[C@H](C)NC(=O)[C@H](Cc1ccc(O)c([N+](=O)[O-])c1)NC(=O)[C@H](CC(C)C)N(C)C(=O)[C@@H](N)Cc1cn(C(C)(C)C=C)c2ccccc12)C(=O)N=[N+]=[N-], 21-membered ring, 0.27 h) was less than 50%.

`CC(C)C[C@H]1C(=O)N[C@@H](C)C(=O)N[C@@H](C)C(=O)N(C)[C@@H](CC(C)C)C(=O)N[C@@H](C)C(=O)NCC(=O)N[C@@H](C)C(=O)N1C` [H-Ala-N-Me-Leu-Ala-Ala-N-Me-Leu-Ala-Gly-N3]: where the note is “from CC(C)C[C@@H](C(=O)N[C@@H](C)C(=O)N[C@@H](C)C(=O)N(C)[C@@H](CC(C)C)C(=O)N[C@@H](C)C(=O)NCC(=O)N=[N+]=[N-])N(C)C(=O)[C@H](C)N, 21-membered ring, 0.35 h”, the ring closure, conversion by HPLC stood at 90%. In the case of `CC(C)C[C@@H]1NC(=O)[C@H](Cc2ccc(O)cc2)NC(=O)[C@@H]2CCCN2C(=O)CNC(=O)[C@H](C)NC1=O` [H-Gly-Pro-Tyr-Leu-Ala-N3], the ring closure, conversion by HPLC (from CC(C)C[C@H](NC(=O)[C@H](Cc1ccc(O)cc1)NC(=O)[C@@H]1CCCN1C(=O)CN)C(=O)N[C@@H](C)C(=O)N=[N+]=[N-], 15-membered ring, 0.35 h) stood at 77%. For `CC[C@H](C)[C@@H]1NC(=O)CNC(=O)[C@H](CO)NC(=O)[C@@H]2CCCN2C(=O)[C@H](C(C)C)NC(=O)[C@@H]2CCCN2C(=O)CNC(=O)[C@H](Cc2ccccc2)NC1=O` [H-Pro-Val-Pro-Ser-Gly-Ile-Phe-Gly-N3], the ring closure, conversion by HPLC (from CC[C@H](C)[C@H](NC(=O)CNC(=O)[C@H](CO)NC(=O)[C@@H]1CCCN1C(=O)[C@@H](NC(=O)[C@@H]1CCCN1)C(C)C)C(=O)N[C@@H](Cc1ccccc1)C(=O)NCC(=O)N=[N+]=[N-], 24-membered ring, 1.67 h) is 58%. As for `CC(C)C[C@@H]1NC(=O)[C@H](CCCN)NC(=O)[C@H](C(C)C)NC(=O)[C@@H]2CCCN2C(=O)[C@@H](Cc2ccccc2)NC(=O)[C@H](CC(C)C)NC(=O)[C@H](CCCN)NC(=O)[C@H](C(C)C)NC(=O)[C@@H]2CCCN2C(=O)[C@@H](Cc2ccccc2)NC1=O` [H-D-Phe-Pro-Val-Orn-Leu-D-Phe-Pro-Val-Orn-Leu-N3], the ring closure, conversion by HPLC (from CC(C)C[C@H](NC(=O)[C@H](CCCN)NC(=O)[C@@H](NC(=O)[C@@H]1CCCN1C(=O)[C@@H](Cc1ccccc1)NC(=O)[C@H](CC(C)C)NC(=O)[C@H](CCCN)NC(=O)[C@@H](NC(=O)[C@@H]1CCCN1C(=O)[C@H](N)Cc1ccccc1)C(C)C)C(C)C)C(=O)N=[N+]=[N-], 30-membered ring, 0.33 h) worked out at 92%. Turning to `CSCC[C@@H]1NC(=O)[C@H](C(C)C)NC(=O)[C@H](CC(C)C)NC(=O)CNC(=O)[C@@H]2CCCN2C(=O)[C@H](C(C)C)NC(=O)CNC(=O)[C@H](Cc2ccccc2)NC1=O` [H-Phe-Gly-Val-Pro-Gly-Leu-Val-Met-N3], where the note is “from CSCC[C@H](NC(=O)[C@@H](NC(=O)[C@H](CC(C)C)NC(=O)CNC(=O)[C@@H]1CCCN1C(=O)[C@@H](NC(=O)CNC(=O)[C@@H](N)Cc1ccccc1)C(C)C)C(C)C)C(=O)N=[N+]=[N-], 24-membered ring, 0.35 h”, the ring closure, conversion by HPLC worked out at 38%. Consider `CC(=O)N[C@@H](Cc1ccccc1)C(=O)N[C@H]1CCCNC(=O)[C@H](CCCNC(=N)N)NC(=O)[C@H](Cc2c[nH]c3ccccc23)NC(=O)[C@@H](Cc2ccc(O)cc2)NC(=O)[C@@H]2CCCN2C1=O` [Ac-Phe-Orn(cyclises via side chain)-Pro-D-Tyr-Trp-Arg-N3], for which the ring closure, conversion by HPLC (from CC(=O)N[C@@H](Cc1ccccc1)C(=O)N[C@@H](CCCN)C(=O)N1CCC[C@H]1C(=O)N[C@H](Cc1ccc(O)cc1)C(=O)N[C@@H](Cc1c[nH]c2ccccc12)C(=O)N[C@@H](CCCNC(=N)N)C(=O)N=[N+]=[N-], 18-membered ring, 0.35 h) amounted to 95%. For the molecule `C=CC[C@@H]1NC(=O)[C@H](CC(C)C)NC(=O)[C@H](CC(C)C)N(C)C(=O)[C@H](C)NC(=O)[C@H](Cc2ccc(O)c([N+](=O)[O-])c2)NC(=O)[C@H](CC(C)C)NC(=O)[C@H](Cc2cn(C(C)(C)C=C)c3ccccc23)NC1=O`, the ring closure, conversion by HPLC (from C=CC[C@H](NC(=O)[C@H](CC(C)C)NC(=O)[C@H](CC(C)C)N(C)C(=O)[C@H](C)NC(=O)[C@H](Cc1ccc(O)c([N+](=O)[O-])c1)NC(=O)[C@H](CC(C)C)NC(=O)[C@@H](N)Cc1cn(C(C)(C)C=C)c2ccccc12)C(=O)N=[N+]=[N-], 21-membered ring, 0.27 h) was less than 50%.
